Data published in PMC9944328 (Nature Communications, 2023).

Key:
SSTR3 = molecular target: T1, SSTR3 (Homo sapiens, UniProt P32745); test: SSTRs Gi-mediated cAMP inhibition, GloSensor, HEK293 (SSTR3 wild-type); assay type: cell-based; set-up: Bottom / Top / Span / Top (best-fit): unit not given here; details: SSTR3-WT; for LogEC50 (best-fit) / Top (best-fit): cAMP inhibition
T1 construct: The human full-length SSTRs and mutants were cloned into the pcDNA3.1+ vector; expressed in transfected cells; host or cells: HEK293 (ATCC, CRL-1573)
T1 sequence (P32745 whole entry): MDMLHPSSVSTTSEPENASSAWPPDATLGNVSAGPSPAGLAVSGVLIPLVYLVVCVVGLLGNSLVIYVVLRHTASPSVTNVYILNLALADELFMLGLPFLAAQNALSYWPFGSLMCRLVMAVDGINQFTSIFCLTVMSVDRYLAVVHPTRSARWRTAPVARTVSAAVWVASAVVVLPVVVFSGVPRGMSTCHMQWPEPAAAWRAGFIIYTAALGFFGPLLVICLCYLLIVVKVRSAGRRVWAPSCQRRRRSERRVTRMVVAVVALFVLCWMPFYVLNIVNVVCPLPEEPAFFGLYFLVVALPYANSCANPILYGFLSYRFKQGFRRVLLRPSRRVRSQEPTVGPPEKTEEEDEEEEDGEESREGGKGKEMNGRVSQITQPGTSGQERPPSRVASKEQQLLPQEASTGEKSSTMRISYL
Protocol: (§1) The levels of the intracellular 3′, 5′-cyclic AMP (cAMP) were measured by the GloSensor cAMP assay (Promega) as described in the previous studies[28],[41] which has been widely used. The human full-length SSTRs and mutants were cloned into the pcDNA3.1+ vector with a HA signal sequence followed by a Flag tag at the N-terminus. […] Cells were then co-transfected with SSTR wild-type or mutants and GloSensor plasmids. After 24 h of transfection, the cells were dissociated with TrypLE™ Express Enzyme (1X) (Thermo Fisher Scientific) and collected by centrifugation at 500 × g for 5 min. Then the collected cells were suspended in Hank’s balanced salt solution [HBSS (Thermo Fisher Scientific)] supplemented with […] potassium salt solution (YEASEN), and then the suspension cells were seeded into 96-well plates with 90 μl/well. After incubating at room temperature for 40 min, 5 μM forskolin and ligands diluted in HBSS were added to each well and the plates were incubated at room temperature for 15 min. […] signals were measured using the Synergy H1 microplate reader (BioTek) and the data presented are means of at least three independent experiments.

SSTR3 mutants [1] = molecular target: SSTR3 mutants (Homo sapiens, UniProt P32745); test: SSTRs Gi-mediated cAMP inhibition, GloSensor, HEK293 (SSTR3 mutants); assay type: cell-based; set-up: Bottom / Top / Span / Top (best-fit): unit not given here; details: for LogEC50 (best-fit) / Top (best-fit): cAMP inhibition, SSTR3 N101V
Chain of SSTR3 mutants (Homo sapiens, UniProt P32745) (P32745 whole entry N104V): as the sequence (P32745 whole entry) above, with N104V counted along it
Protocol: as §1

SSTR3 mutants [2] = molecular target: T2, SSTR3 mutants (Homo sapiens, UniProt P32745, H192T); test: as above; assay type: cell-based; set-up: Bottom / Top / Span / Top (best-fit): unit not given here; details: for LogEC50 (best-fit) / Top (best-fit): cAMP inhibition, SSTR3 H192T
T2 construct: The human full-length SSTRs and mutants were cloned into the pcDNA3.1+ vector; expressed in transfected cells; host or cells: HEK293 (ATCC, CRL-1573)
T2 sequence (P32745 whole entry H192T): as the sequence (P32745 whole entry) above, with H192T counted along it
Protocol: as §1

SSTR2 [3] = test: SSTR2 internalization by ELISA, HEK293, 30 min 37 °C (wild-type); assay type: cell-based, human; details: same concentration for both drugs; also confocal and Bystander BRET
Protocol: HEK293 cells were seeded into 96-well microplates at a density of 4 × 10^4 cells/well and cultured for 24 h at 37 °C with 5% CO2 and were transfected using the same procedure as the cAMP accumulation assay. The plates were washed with washing buffer (PBS) the day after transfection, and were fixed with 4% formalin at room temperature for 30 min. Cells were washed with washing buffer and blocked with PBS supplemented with 5% BSA for 1 h at room temperature. After that, cells were incubated with anti-Flag antibody (1:1000 diluted with PBS containing 5% BSA, Proteintech: 66008-4-Ig) for 1 h at room temperature. After 1 h incubation, cells were washed with washing buffer and incubating with HRP-conjugated secondary antibody for 2 h at room temperature. After incubating and washing, 50 μl of chromogenic solution was added to each well, and reacted at room temperature for 10 min, and then 0.5 M HCl were added to stop the reaction.
All data presented are means at least three independent experiments.

GH3 cells = test: Cell apoptosis assay, Annexin V-FITC/PI flow cytometry, GH3 cells overexpressing SSTR2, 48 h; assay type: cell-based, rat
Protocol: The rat pituitary GH3 cells (ATCC, CCL-82.1) were seeded in 12-well plates at 1.5 × 10^5/well. […] Then, the cells were collected for the apoptosis assay according to the instruction of the Annexin V-FITC/PI apoptosis detection kit (BD Biosciences). Briefly, the cells were washed with cold PBS and resuspended in 1 × binding buffer. Then, 5 μl of Annexin V-FITC was added and incubated for 10 min and stained with 5 μl of PI for 5 min in the dark at room temperature. All samples were acquired by a Novocyte flow cytometer (ACEA Biosciences, China), and data were analyzed with NovoExpress^TM software.

SSTR2 [4] = test: Bias factor (β value), Gi cAMP inhibition versus β-arrestin recruitment; assay type: cell-based, human
Protocol: as §1
The NanoBiT β-arrestin 1 recruitment assays were carried out according to the method described previously. […] Human full-length SSTR wild-type and mutant vectors were C-terminally fused with a 15-amino acid flexible linker and the small fragment (SmBiT). HEK293 cells were seeded into six-well microplates at a density of 1.0 × 10^6 cells/well and cultured for 24 h at 37 °C with 5% CO2. After that, cells were co-transfected with pcDNA3.1+ vectors encoding SSTR wild-type or mutants and human β-arrestin 1. After transfecting for 24 h, the transfected cells were suspended and seeded into white 96-well plates, and then cultured at 37 °C overnight. After that the medium in each well was exchanged for 90 μl of 0.01% bovine serum albumin containing 20 μl of 50 μM coelenterazine h (Carbosynth) diluted in the HBSS assay buffer and incubated for 40 min at room temperature. Then, ligands diluted in the assay buffer was added to each well and the luminescence intensity was measured using the Synergy H1 microplate reader and detected at room temperature in a time period. All data presented are means of at least three independent experiments.
All data in this study were analyzed using GraphPad Prism 7 and were expressed as the error bars and the standard error of means ± SEM from at least n = 3 biologically independent experiments performed in triplicate. All curve data were normalized to the maximal wild-type and processed using a sigmoidal dose response curve in GraphPad Prism 7. Statistical differences between conditions were determined by one-way of variance ANOVA with Dunnett’s test or T-test.

SSTR2 mutants = SSTR2 mutants (Homo sapiens, UniProt P30874, P220A); test: Bystander BRET endosomal trafficking (β-arrestin 1-Nluc, FYVE-mVenus), HEK293 (SSTR2 mutants); details: for Bottom: Best-fit values;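 as to all read-outs here: Read-out is the BRET ratio between Nluc-fused β-arrestin 1 and the early endosome marker FYVE-mVenus, measured after ligand addition with coelenterazine h as substrate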
Chain of SSTR2 mutants (P30874 whole entry P220A, the tested form may be a part): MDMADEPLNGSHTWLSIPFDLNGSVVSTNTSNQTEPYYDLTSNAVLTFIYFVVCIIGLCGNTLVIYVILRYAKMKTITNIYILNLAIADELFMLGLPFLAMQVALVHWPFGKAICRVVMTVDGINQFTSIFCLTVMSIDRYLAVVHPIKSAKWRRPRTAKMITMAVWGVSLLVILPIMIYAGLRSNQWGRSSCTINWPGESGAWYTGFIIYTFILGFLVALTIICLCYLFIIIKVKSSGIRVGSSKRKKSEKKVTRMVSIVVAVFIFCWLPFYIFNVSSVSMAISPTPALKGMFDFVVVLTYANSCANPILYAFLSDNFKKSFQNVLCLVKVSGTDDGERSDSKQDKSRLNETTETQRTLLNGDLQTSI

C[C@@H](O)[C@@H]1NC(=O)[C@H](CCCCN)NC(=O)[C@@H](Cc2c[nH]c3ccccc23)NC(=O)[C@H](Cc2ccccc2)NC(=O)[C@@H](NC(=O)[C@H](N)Cc2ccccc2)CSSC[C@@H](C(=O)N[C@H](CO)[C@@H](C)O)NC1=O [octreotide]
Emax (SSTR3; HEK293, Suppl. Tables 4/5, n=5): 99.8 ± 8.21%
LogEC50 (best-fit) (SSTR3; run 1): -7.262
Top (best-fit) (SSTR3; run 1): 103
LogEC50 (best-fit) (SSTR3; run 2): -7.521
Top (best-fit) (SSTR3; run 2): 99.85
LogEC50 (best-fit) (SSTR3; run 3): -7.466
Top (best-fit) (SSTR3; run 3): 98.24
LogEC50 (best-fit) (SSTR3; run 4): -8.231
Top (best-fit) (SSTR3; run 4): 100.3
Emax (SSTR3 mutants [1]; HEK293): 120 ± 3.57%
LogEC50 (best-fit) (SSTR3 mutants [1]; run 1): -8.602
Top (best-fit) (SSTR3 mutants [1]; run 1): 99.48
LogEC50 (best-fit) (SSTR3 mutants [1]; run 2): -8.875
Top (best-fit) (SSTR3 mutants [1]; run 2): 120.3
LogEC50 (best-fit) (SSTR3 mutants [1]; run 3): -8.73
Top (best-fit) (SSTR3 mutants [1]; run 3): 98.22
LogEC50 (best-fit) (SSTR3 mutants [1]; run 4): -9.386
Top (best-fit) (SSTR3 mutants [1]; run 4): 101.4
EC50 of mutant versus wild-type (SSTR3 mutants [2]; H192(45.51)T mutant of SSTR3): retained a similar EC50 as wild-type receptor
Emax (SSTR3 mutants [2]; HEK293, Suppl. Tables 4/5, SSTR3 H192(45.51)T, n=3, read-out: Emax): 92.4 ± 10.2%
LogEC50 (best-fit) (SSTR3 mutants [2]; run 1): -7.081
Top (best-fit) (SSTR3 mutants [2]; run 1): 99.15
LogEC50 (best-fit) (SSTR3 mutants [2]; run 2): -7.677
Top (best-fit) (SSTR3 mutants [2]; run 2): 107.4
LogEC50 (best-fit) (SSTR3 mutants [2]; run 3): -7.174
Top (best-fit) (SSTR3 mutants [2]; run 3): 100.5
LogEC50 (best-fit) (SSTR3 mutants [2]; run 4): -7.758
Top (best-fit) (SSTR3 mutants [2]; run 4): 101.2
Internalization of wild-type SSTR2 (SSTR2 [3]): obviously internalized
Proapoptotic activity (GH3 cells): able to activate proapoptotic pathways
Effect of microswitch mutations (SSTR2 [4]; CWxP, PIF, DRY and NPxxY motif mutants versus wild-type SSTR2): decreased the potency of β-arrestin recruitment more markedly than the activation ability of Gi signaling
Effect of mutants on both signals (SSTR2 [4]; D122(3.32) and Q126(3.36) mutants): markedly affected both β-arrestin and Gi signal
Bottom (SSTR2 mutants; P220A-1): -11.09
Bottom (SSTR2 mutants; P220A-2): 6.493
Emax (SSTR2 mutants; HEK293): 20.3 ± 8.01%
